# Measured values taken from US20110105515A1, “TARGETING THE ONCOPROTEIN NUCLEOPHOSMIN” (President and Fellows of Harvard College, priority 2007, published 2011).
# Experiments:
# [1] = tested on: HCT-15; conditions: HCT-15 (Colon Cancer), 48 hours, SRB
# [2] = tested on: SK-OV-3; conditions: SK-OV-3 (Ovarian Cancer), 48 hours, SRB
# [3] = tested on: UACC62; conditions: UACC62 (Melanoma), 48 hours, SRB
# [4] = tested on: OVCAR-3; conditions: OVCAR-3 (Ovarian Cancer), 48 hours, SRB
# [5] = tested on: LOX IMVI; conditions: LOX IMVI (Melanoma), 48 hours, SRB
# [6] = tested on: U251; conditions: U251 (CNS Cancer), 48 hours, SRB
# [7] = tested on: SF-295; conditions: SF-295 (CNS Cancer), 48 hours, SRB
# [8] = tested on: MCF7; conditions: MCF7 (Breast Cancer), 48 hours, SRB
# [9] = tested on: UACC-257; conditions: UACC-257 (Melanoma), 48 hours, SRB
# [10] = tested on: OVCAR-8; conditions: OVCAR-8 (Ovarian Cancer), 48 hours, SRB
# [11] = tested on: HL-60(TB)
# [12] = tested on: RXF 393; conditions: RXF 393 (Renal Cancer), 48 hours, SRB
# [13] = tested on: OVCAR-4; conditions: OVCAR-4 (Ovarian Cancer), 48 hours, SRB
# [14] = tested on: NCI-H460; conditions: NCI-H460 (Non-Small Cell Lung Cancer), 48 hours, SRB
# [15] = tested on: HOP-62; conditions: HOP-62 (Non-Small Cell Lung Cancer), 48 hours, SRB
# [16] = tested on: SN12C; conditions: SN12C (Renal Cancer), 48 hours, SRB
# [17] = tested on: KM12; conditions: KM12 (Colon Cancer), 48 hours, SRB
# [18] = tested on: SF-539; conditions: SF-539 (CNS Cancer), 48 hours, SRB
# [19] = tested on: RPMI-8226; conditions: RPMI-8226 (Leukemia), 48 hours, SRB
# [20] = tested on: EKVX; conditions: EKVX (Non-Small Cell Lung Cancer), 48 hours, SRB
# [21] = tested on: CCRF-CEM; conditions: CCRF-CEM (Leukemia), 48 hours, SRB
# [22] = tested on: UO-31; conditions: UO-31 (Renal Cancer), 48 hours, SRB
# [23] = tested on: K-562; conditions: K-562 (Leukemia), 48 hours, SRB
# [24] = tested on: OVCAR-5; conditions: OVCAR-5 (Ovarian Cancer), 48 hours, SRB
# [25] = tested on: NCI-H23; conditions: NCI-H23 (Non-Small Cell Lung Cancer), 48 hours, SRB
# [26] = tested on: SK-MEL-5; conditions: SK-MEL-5 (Melanoma), 48 hours, SRB
# [27] = tested on: SNB-19; conditions: SNB-19 (CNS Cancer), 48 hours, SRB
# [28] = tested on: T-47D; conditions: T-47D (Breast Cancer), 48 hours, SRB
# [29] = tested on: HS578T; conditions: HS578T (Breast Cancer), 48 hours, SRB
# [30] = tested on: A549/ATCC; conditions: A549/ATCC (Non-Small Cell Lung Cancer), 48 hours, SRB
# [31] = tested on: MOLT-4; conditions: MOLT-4 (Leukemia), 48 hours, SRB
# [32] = tested on: ACHN; conditions: ACHN (Renal Cancer), 48 hours, SRB
smiles,measurement,setting,value
CC1(C)C=Cc2c(ccc3c4c(n(O)c23)C(C)(C)C2CC35CCCN3C(=O)C2(NC5=O)C4SCC(NC(=O)CCC(N)C(=O)O)C(=O)NCC(=O)O)O1 (centres unmarked) [Glutathione Adduct],GI50,[1],840 nM
same,TGI,[1],2040 nM
same,CC50,[1]; read-out: LC50,4930 nM
same,GI50,[2],1300 nM
same,TGI,[2],5060 nM
same,CC50,[2]; read-out: LC50,16100 nM
same,GI50,[3],649 nM
same,TGI,[3],1720 nM
same,CC50,[3]; read-out: LC50,4560 nM
same,GI50,[4],735 nM
same,TGI,[4],1520 nM
same,CC50,[4]; read-out: LC50,3130 nM
same,GI50,[5],806 nM
same,TGI,[5],1560 nM
same,GI50,[6],819 nM
same,TGI,[6],1970 nM
same,CC50,[6]; read-out: LC50,4760 nM
same,GI50,[7],1450 nM
same,TGI,[7],6580 nM
same,CC50,[7]; read-out: LC50,24400 nM
same,GI50,[8],840 nM
same,TGI,[8],3180 nM
same,CC50,[8]; read-out: LC50,33600 nM
same,GI50,[9],1070 nM
same,TGI,[9],5430 nM
same,CC50,[9]; read-out: LC50,17300 nM
same,GI50,[10],1600 nM
same,TGI,[10],6380 nM
same,CC50,[10]; read-out: LC50,29800 nM
same,CC50,[11],13300 nM
same,GI50,[11],321 nM
same,TGI,[11],1620 nM
same,GI50,[12],829 nM
same,TGI,[12],1750 nM
same,CC50,[12]; read-out: LC50,3690 nM
same,GI50,[13],742 nM
same,TGI,[13],2490 nM
same,CC50,[13]; read-out: LC50,10100 nM
same,GI50,[14],1110 nM
same,TGI,[14],2410 nM
same,CC50,[14]; read-out: LC50,23200 nM
same,GI50,[15],6670 nM
same,TGI,[15],1380 nM
same,CC50,[15]; read-out: LC50,28600 nM
same,GI50,[16],1510 nM
same,TGI,[16],5640 nM
same,CC50,[16]; read-out: LC50,17800 nM
same,GI50,[17],979 nM
same,TGI,[17],1910 nM
same,CC50,[17]; read-out: LC50,3730 nM
same,GI50,[18],838 nM
same,TGI,[18],2030 nM
same,CC50,[18]; read-out: LC50,4900 nM
same,GI50,[19],159 nM
same,TGI,[19],1140 nM
same,CC50,[19]; read-out: LC50,> 50000 nM
same,GI50,[20],1110 nM
same,TGI,[20],5400 nM
same,CC50,[20]; read-out: LC50,18900 nM
same,GI50,[21],672 nM
same,TGI,[21],2030 nM
same,CC50,[21]; read-out: LC50,35000 nM
same,GI50,[22],779 nM
same,TGI,[22],4070 nM
same,CC50,[22]; read-out: LC50,15000 nM
same,GI50,[23],1010 nM
same,TGI,[23],4660 nM
same,CC50,[23]; read-out: LC50,> 50000 nM
same,GI50,[24],971 nM
same,TGI,[24],3030 nM
same,CC50,[24]; read-out: LC50,12000 nM
same,GI50,[25],1090 nM
same,TGI,[25],3070 nM
same,CC50,[25]; read-out: LC50,14900 nM
same,GI50,[26],826 nM
same,TGI,[26],1860 nM
same,CC50,[26]; read-out: LC50,4170 nM
same,GI50,[27],1430 nM
same,TGI,[27],6240 nM
same,CC50,[27]; read-out: LC50,18700 nM
same,GI50,[28],319 nM
same,TGI,[28],2470 nM
same,CC50,[28]; read-out: LC50,46000 nM
same,GI50,[29],1110 nM
same,TGI,[29],3790 nM
same,CC50,[29]; read-out: LC50,> 50000 nM
same,GI50,[30],1370 nM
same,TGI,[30],3940 nM
same,CC50,[30]; read-out: LC50,15800 nM
same,GI50,[31],425 nM
same,TGI,[31],1750 nM
same,CC50,[31]; read-out: LC50,20600 nM
same,GI50,[32],961 nM
same,TGI,[32],3220 nM
same,CC50,[32]; read-out: LC50,12300 nM
